From patent publication US9943576B2 (priority 2014, dated 2018)

What was measured:
Type in all cases: cell-based
[1] = test system: human uroepithelial cells
[2] = test system: human uroepithelial cells; remark: listed apart in the source
[3] = test system: human uroepithelial cells; remark: listed apart in the source

OCc1ccccc1 [Benzyl Alcohol]
Typical Results [1]: Slight Increase (1% at 2

CCOCCOCCO [Diethylene glycol mono-ethyl ether]
Typical Results [1]: No Effect

O=C(O)CN(CCN(CC(=O)O)CC(=O)O)CC(=O)O [EDTA]
penetration of fluorescent gelatin, RFU relative to untreated control [2]: 300% | Typical Results [1]: Increase

CCCCCCCC/C=C\CCCCCCCC(=O)OCCOCC(OCCO)C1OCC(OCCO)C1OCCO (stereo not shown) [Tween 80]
Typical Results [1]: Increase (Dose response)

Benzalkonium bromide
Typical Results [1]: No Effect

Nonoxynol 9
Typical Results [1]: Increase (Dose response) | increase vs saline in the amount of BoNT/A that permeated the in vitro urothelium [3]: 3 fold

Poly-L-Arginine
Typical Results [1]: Inhibited

Poly-L-lysine Hydrobromide
Typical Results [1]: Increase (Dose response)

Protamine sulfate
Typical Results [1]: Inhibited

octyl phenol ethoxylate [Triton-X100]
Typical Results [1]: Increase (Dose response) | increase vs saline in the amount of BoNT/A that permeated the in vitro urothelium [3]: 3.6 fold
